Biological target: recombinant human Nav1.7 (Homo sapiens (Human), UniProt Q15858)
Assay: FRET-based membrane potential assay, recombinant human sodium channel Nav1.7
Format: cell-based
Details: FRET-Membrane Potential Nav1.7 IC50
Method in brief: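 Channel activation used veratridine at its EC80, set by a dilution curve each experiment, together with Leiurus scorpion venom, added 3 min after compound. Membrane-potential ratio signals from FLIPR Tetra in HEPES-buffered HBSS were fitted to a four-parameter Hill equation for percent inhibition and IC50.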

recombinant human Nav1.7, sequence (Q15858 whole entry): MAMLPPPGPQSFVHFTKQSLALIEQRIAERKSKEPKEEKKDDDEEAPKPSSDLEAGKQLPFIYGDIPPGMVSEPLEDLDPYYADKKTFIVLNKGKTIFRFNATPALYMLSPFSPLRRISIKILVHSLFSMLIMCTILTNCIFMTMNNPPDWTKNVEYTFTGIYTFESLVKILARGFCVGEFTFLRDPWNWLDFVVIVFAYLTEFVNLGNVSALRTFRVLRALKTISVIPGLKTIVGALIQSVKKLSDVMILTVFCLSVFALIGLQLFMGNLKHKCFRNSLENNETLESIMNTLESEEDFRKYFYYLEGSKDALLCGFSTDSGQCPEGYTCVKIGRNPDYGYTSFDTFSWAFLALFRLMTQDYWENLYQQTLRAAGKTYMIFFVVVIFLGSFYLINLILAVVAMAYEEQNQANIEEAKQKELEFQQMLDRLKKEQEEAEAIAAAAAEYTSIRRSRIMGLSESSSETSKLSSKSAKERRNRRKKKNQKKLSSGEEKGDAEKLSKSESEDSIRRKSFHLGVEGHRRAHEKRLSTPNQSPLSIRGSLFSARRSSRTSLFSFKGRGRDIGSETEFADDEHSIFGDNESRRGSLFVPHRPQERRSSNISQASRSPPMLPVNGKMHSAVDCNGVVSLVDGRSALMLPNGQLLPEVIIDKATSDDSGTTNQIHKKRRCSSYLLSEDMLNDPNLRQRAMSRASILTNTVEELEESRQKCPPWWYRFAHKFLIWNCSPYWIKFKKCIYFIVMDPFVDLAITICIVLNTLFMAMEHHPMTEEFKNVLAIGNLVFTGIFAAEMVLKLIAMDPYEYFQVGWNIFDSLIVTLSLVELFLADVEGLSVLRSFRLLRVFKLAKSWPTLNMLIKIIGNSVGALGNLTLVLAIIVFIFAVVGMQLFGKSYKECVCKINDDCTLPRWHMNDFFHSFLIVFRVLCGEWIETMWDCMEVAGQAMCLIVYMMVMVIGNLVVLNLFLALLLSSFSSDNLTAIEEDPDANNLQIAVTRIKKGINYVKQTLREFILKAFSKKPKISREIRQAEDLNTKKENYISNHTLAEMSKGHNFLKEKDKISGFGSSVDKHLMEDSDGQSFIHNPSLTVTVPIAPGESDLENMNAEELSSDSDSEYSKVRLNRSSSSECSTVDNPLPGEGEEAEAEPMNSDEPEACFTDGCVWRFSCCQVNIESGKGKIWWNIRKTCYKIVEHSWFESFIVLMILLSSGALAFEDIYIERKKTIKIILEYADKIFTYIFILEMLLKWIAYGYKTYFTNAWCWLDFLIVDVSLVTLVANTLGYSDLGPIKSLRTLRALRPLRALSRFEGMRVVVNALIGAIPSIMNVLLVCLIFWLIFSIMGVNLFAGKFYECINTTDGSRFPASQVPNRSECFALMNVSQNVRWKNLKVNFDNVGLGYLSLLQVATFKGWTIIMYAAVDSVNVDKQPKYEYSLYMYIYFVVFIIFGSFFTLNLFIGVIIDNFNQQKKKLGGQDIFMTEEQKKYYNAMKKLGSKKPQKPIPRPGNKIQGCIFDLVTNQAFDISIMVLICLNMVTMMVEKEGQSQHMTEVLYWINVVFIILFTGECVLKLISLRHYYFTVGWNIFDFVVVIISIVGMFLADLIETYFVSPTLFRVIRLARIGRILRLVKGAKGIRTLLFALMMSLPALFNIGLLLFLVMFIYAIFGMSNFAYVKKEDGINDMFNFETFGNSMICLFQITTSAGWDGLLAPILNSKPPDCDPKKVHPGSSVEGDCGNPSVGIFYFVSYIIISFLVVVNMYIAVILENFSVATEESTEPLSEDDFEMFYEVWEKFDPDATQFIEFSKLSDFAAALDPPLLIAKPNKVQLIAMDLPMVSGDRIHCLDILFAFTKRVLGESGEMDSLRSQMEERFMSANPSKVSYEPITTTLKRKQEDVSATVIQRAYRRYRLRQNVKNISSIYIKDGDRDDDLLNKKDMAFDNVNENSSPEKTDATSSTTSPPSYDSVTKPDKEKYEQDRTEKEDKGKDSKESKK

SMILES	IC50 [nM]
O=C(c1ccc2cc(Oc3ccc(C(F)(F)F)cn3)ccc2n1)N1CCN[C@H](CO)C1 [Example 276, [(3S)-3-(hydroxymethyl)piperazin-1-yl](6-{[5-(trifluoromethyl)pyridin-2-yl]oxy}quinolin-2-yl)methanone]	3100

Same assay, conditions: HEK293 cells stably expressing recombinant human Nav1.7; veratridine + scorpion venom depolarization; read-out: FRET-Membrane Potential Nav1.7 IC50

SMILES	IC50 [nM]
O=C(NCC(=O)N1CCS(=O)(=O)C1)c1ccc2cc(Oc3ccc(C(F)(F)F)cn3)ccc2n1 [Example 568, N-[2-(1,1-dioxido-1,3-thiazolidin-3-yl)-2-oxoethyl]-6-{[5-(trifluoromethyl)pyridin-2-yl]oxy}quinoline-2-carboxamide]	3260
CC[C@H]1CN(C(=O)c2ccc3cc(Oc4ccc(C(F)(F)F)cn4)ccc3n2)CCN1 [Example 273, [(3S)-3-ethylpiperazin-1-yl](6-{[5-(trifluoromethyl)pyridin-2-yl]oxy}quinolin-2-yl)methanone]	488
O=C1CCC2N1CCCN2C(=O)c1ccc2cc(Oc3ccc(C(F)(F)F)cn3)ccc2n1 (stereo not drawn) [Example 614, 1-[(6-{[5-(trifluoromethyl)pyridin-2-yl]oxy}quinolin-2-yl)carbonyl]hexahydropyrrolo[1,2-a]pyrimidin-6(2H)-one]	12200
N#Cc1ccc(Oc2ccc3nc(C(=O)NCc4ccco4)ccc3c2)cc1 [Example 94, 6-(4-cyanophenoxy)-N-(2-furylmethyl)quinoline-2-carboxamide]	5250
O=C(NCC(=O)N1CCCC1)c1ccc2cc(Oc3ccc(C(F)F)cn3)ccc2n1 [Example 456, 6-{[5-(difluoromethyl)pyridin-2-yl]oxy}-N-[2-oxo-2-(pyrrolidin-1-yl)ethyl]quinoline-2-carboxamide]	886
O=C(NCC(=O)N1CCC(F)(F)C1)c1ccc2cc(Oc3ccc(C(F)(F)F)cn3)ccc2n1 [Example 565, N-[2-(3,3-difluoropyrrolidin-1-yl)-2-oxoethyl]-6-{[5-(trifluoromethyl)pyridin-2-yl]oxy}quinoline-2-carboxamide]	3430
Cc1c(S(=O)(=O)N2CCN(C(=O)c3ccc4cc(Oc5ccc(C(F)(F)F)cn5)ccc4n3)CC2)cnn1C [Example 390, {4-[(1,5-dimethyl-1H-pyrazol-4-yl)sulfonyl]piperazin-1-yl}(6-{[5-(trifluoromethyl)pyridin-2-yl]oxy}quinolin-2-yl)methanone]	2340
O=C(c1ccc2cc(Oc3ccc(C(F)(F)F)cn3)ccc2n1)N1CCC2(COC2)C1 [Example 494, 2-oxa-6-azaspiro[3.4]oct-6-yl(6-{[5-(trifluoromethyl)pyridin-2-yl]oxy}quinolin-2-yl)methanone]	9320
O=C(NC[C@H]1CCCN1)c1ccc2cc(Oc3ccc(C(F)(F)F)cn3)ccc2n1 [Example 335, N-[(2R)-pyrrolidin-2-ylmethyl]-6-{[5-(trifluoromethyl)pyridin-2-yl]oxy}quinoline-2-carboxamide]	573
O=C(c1ccc2cc(Oc3ccc(C(F)(F)F)cn3)ccc2n1)N1CCN(C(=O)C2CC2)CC1 [Example 290, cyclopropyl{4-[(6-{[5-(trifluoromethyl)pyridin-2-yl]oxy}quinolin-2-yl)carbonyl]piperazin-1-yl}methanone]	9860
O=C(NC1CCC1)c1ccc2cc(Oc3ccc(C(F)(F)F)cn3)ccc2n1 [Example 596, N-cyclobutyl-6-{[5-(trifluoromethyl)pyridin-2-yl]oxy}quinoline-2-carboxamide]	1760
O=C(c1ccc2cc(Oc3ccc(C(F)(F)F)cn3)ccc2n1)N1CC[C@H](O)[C@H]1CO [Example 304, [(2R,3S)-3-hydroxy-2-(hydroxymethyl)pyrrolidin-1-yl](6-{[5-(trifluoromethyl)pyridin-2-yl]oxy}quinolin-2-yl)methanone]	> 20000
CC1(C)CN(CCNC(=O)c2ccc3cc(Oc4ccc(C(F)(F)F)cn4)ccc3n2)C1 [Example 364, N-[2-(3,3-dimethylazetidin-1-yl)ethyl]-6-{[5-(trifluoromethyl)pyridin-2-yl]oxy}quinoline-2-carboxamide]	370
N#Cc1cnc(Oc2ccc3nc(C(=O)N4CCNCC4)ccc3c2)cn1 [Example 372, 5-{[2-(piperazin-1-ylcarbonyl)quinolin-6-yl]oxy}pyrazine-2-carbonitrile]	> 20000
O=C(c1ccc2cc(Oc3ccc(C(F)(F)F)cn3)ccc2n1)N1CC(F)C1 [Example 507, (3-fluoroazetidin-1-yl)(6-{[5-(trifluoromethyl)pyridin-2-yl]oxy}quinolin-2-yl)methanone]	2180
O=C(NCCN1CCNCC1=O)c1ccc2cc(Oc3ccc(C(F)(F)F)cn3)ccc2n1 [Example 469, N-[2-(2-oxopiperazin-1-yl)ethyl]-6-{[5-(trifluoromethyl)pyridin-2-yl]oxy}quinoline-2-carboxamide]	1710
Cc1ccc(CNC(=O)c2ccc3cc(Oc4ccc(C#N)cc4)ccc3n2)cc1 [Example 103, 6-(4-cyanophenoxy)-N-(4-methylbenzyl)quinoline-2-carboxamide]	> 20000
O=C(c1ccc2cc(Oc3ccccn3)ccc2n1)N1CCOCC1 [Example 76, morpholin-4-yl[6-(pyridin-2-yloxy)quinolin-2-yl]methanone]	> 20000
O=C(NCCn1ccnc1)c1ccc2cc(Oc3ccc(C(F)(F)F)cn3)ccc2n1 [Example 423, N-[2-(1H-imidazol-1-yl)ethyl]-6-{[5-(trifluoromethyl)pyridin-2-yl]oxy}quinoline-2-carboxamide]	830
O=C(NCCC(=O)N1CCCCC1)c1ccc2cc(Oc3ccc(C(F)(F)F)nc3)ccc2n1 [Example 520, N-[3-oxo-3-(piperidin-1-yl)propyl]-6-{[6-(trifluoromethyl)pyridin-3-yl]oxy}quinoline-2-carboxamide]	945
O=C(NCCN1CCCC1)c1ccc2cc(Oc3ccc(C(F)(F)F)cn3)ccc2n1 [Example 174, N-[2-(pyrrolidin-1-yl)ethyl]-6-{[5-(trifluoromethyl)pyridin-2-yl]oxy}quinoline-2-carboxamide]	294

Same assay, conditions: read-out: FRET-Membrane Potential Nav1.7 IC50

SMILES	IC50 [nM]
O=C(c1ccc2cc(Oc3ccc(C(F)(F)F)cn3)ccc2n1)N1CCCC1c1ccc(C(F)(F)F)cc1 (stereo not drawn) [Example 224, {2-[4-(trifluoromethyl)phenyl]pyrrolidin-1-yl}(6-{[5-(trifluoromethyl)pyridin-2-yl]oxy}quinolin-2-yl)methanone]	> 20000
COCCN(C)C(=O)c1ccc2cc(Oc3ccc(C(F)(F)F)cn3)ccc2n1 [Example 392, N-(2-methoxyethyl)-N-methyl-6-{[5-(trifluoromethyl)pyridin-2-yl]oxy}quinoline-2-carboxamide]	7960
N#Cc1ccc(Oc2ccc3nc(C(=O)N[C@@H]4CCCC[C@@H]4O)ccc3c2)cc1 [Example 119, 6-(4-cyanophenoxy)-N-[(1R,2S)-2-hydroxycyclohexyl]quinoline-2-carboxamide]	819
N#Cc1ccc(Oc2ccc3nc(C(=O)NC4CCOC4)ccc3c2)cc1 (stereo not drawn) [Example 114, 6-(4-cyanophenoxy)-N-(tetrahydrofuran-3-yl)quinoline-2-carboxamide]	560
Cc1cnc(Oc2ccc3nc(C(=O)NC4CCS(=O)(=O)C4)ccc3c2)nc1 (stereo not drawn) [Example 161, N-(1,1-dioxidotetrahydrothiophen-3-yl)-6-[(5-methylpyrimidin-2-yl)oxy]quinoline-2-carboxamide]	> 20000
